“Also recorded” adds a separate entry of the source. Where two headings read alike, the source gives them in different places.
What was measured:
CFTR [1] = molecular target: T1, CFTR (Homo sapiens, UniProt P13569); conditions: cited from earlier work; for Ki: CFTR blocker, read-out: Potency: Ki
Target sequence in this assay (P13569 whole entry): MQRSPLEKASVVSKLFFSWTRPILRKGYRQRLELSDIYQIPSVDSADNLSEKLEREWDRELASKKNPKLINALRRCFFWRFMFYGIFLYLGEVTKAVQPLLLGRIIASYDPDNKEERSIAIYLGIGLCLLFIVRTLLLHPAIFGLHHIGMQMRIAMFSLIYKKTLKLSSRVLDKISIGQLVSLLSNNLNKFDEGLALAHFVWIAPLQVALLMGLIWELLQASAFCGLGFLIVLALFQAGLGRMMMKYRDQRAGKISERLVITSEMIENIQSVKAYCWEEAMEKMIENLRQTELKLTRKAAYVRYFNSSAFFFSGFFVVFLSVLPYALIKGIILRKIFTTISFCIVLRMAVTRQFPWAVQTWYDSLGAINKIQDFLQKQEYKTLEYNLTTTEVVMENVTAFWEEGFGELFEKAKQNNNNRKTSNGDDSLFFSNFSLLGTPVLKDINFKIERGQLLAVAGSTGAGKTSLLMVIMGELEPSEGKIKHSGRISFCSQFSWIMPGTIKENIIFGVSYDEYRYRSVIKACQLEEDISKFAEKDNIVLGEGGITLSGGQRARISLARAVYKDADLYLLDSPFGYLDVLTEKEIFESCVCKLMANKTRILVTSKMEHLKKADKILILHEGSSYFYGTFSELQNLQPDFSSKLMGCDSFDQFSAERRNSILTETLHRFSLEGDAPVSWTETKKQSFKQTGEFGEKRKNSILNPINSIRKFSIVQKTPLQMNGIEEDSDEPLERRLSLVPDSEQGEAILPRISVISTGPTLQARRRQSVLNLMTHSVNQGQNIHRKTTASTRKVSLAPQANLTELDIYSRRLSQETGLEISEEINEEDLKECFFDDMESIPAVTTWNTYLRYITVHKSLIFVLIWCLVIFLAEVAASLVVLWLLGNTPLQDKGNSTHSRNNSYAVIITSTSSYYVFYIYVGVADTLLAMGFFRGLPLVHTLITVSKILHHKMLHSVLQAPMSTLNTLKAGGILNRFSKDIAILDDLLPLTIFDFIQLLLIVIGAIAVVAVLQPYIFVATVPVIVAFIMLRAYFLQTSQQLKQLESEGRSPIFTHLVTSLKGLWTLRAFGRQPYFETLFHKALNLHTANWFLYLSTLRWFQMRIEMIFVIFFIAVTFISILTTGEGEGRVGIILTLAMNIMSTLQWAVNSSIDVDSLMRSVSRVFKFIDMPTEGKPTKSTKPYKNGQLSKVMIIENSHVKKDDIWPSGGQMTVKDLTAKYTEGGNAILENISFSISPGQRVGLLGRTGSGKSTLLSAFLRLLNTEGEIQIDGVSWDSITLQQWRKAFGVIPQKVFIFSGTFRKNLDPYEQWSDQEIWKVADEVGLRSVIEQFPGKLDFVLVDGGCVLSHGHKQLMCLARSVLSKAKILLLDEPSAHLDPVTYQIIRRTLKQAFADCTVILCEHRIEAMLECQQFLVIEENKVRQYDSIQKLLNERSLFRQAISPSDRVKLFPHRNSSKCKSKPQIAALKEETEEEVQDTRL

CFTR [2] = molecular target: T1, CFTR; format: cell-based; conditions: for Effect of CFTR inhibitors on forskolin-stimulated swelling: Example 2, 3 hours pre-incubation, 50 μM
Target sequence in this assay (P13569 whole entry, looked up): as the sequence (P13569 whole entry) above

[3] = cited from earlier work
CFTR [4] = conditions: CFTR corrector, cited from earlier work; for EC50: read-out: Potency: EC50
CFTR [5] = conditions: cited from earlier work
CFTR [6] = test: Organoid swelling on compound addition (organoid origin not stated; FIG. 7, FIG. 32); format: cell-based
CFTR [7] = molecular target: CFTR (Mus musculus, UniProt P26361); test: Forskolin-induced swelling (FIS) of murine wild-type small intestinal organoids; conditions: live cell microscopy
CFTR (Mus musculus, UniProt P26361), sequence (P26361 whole entry): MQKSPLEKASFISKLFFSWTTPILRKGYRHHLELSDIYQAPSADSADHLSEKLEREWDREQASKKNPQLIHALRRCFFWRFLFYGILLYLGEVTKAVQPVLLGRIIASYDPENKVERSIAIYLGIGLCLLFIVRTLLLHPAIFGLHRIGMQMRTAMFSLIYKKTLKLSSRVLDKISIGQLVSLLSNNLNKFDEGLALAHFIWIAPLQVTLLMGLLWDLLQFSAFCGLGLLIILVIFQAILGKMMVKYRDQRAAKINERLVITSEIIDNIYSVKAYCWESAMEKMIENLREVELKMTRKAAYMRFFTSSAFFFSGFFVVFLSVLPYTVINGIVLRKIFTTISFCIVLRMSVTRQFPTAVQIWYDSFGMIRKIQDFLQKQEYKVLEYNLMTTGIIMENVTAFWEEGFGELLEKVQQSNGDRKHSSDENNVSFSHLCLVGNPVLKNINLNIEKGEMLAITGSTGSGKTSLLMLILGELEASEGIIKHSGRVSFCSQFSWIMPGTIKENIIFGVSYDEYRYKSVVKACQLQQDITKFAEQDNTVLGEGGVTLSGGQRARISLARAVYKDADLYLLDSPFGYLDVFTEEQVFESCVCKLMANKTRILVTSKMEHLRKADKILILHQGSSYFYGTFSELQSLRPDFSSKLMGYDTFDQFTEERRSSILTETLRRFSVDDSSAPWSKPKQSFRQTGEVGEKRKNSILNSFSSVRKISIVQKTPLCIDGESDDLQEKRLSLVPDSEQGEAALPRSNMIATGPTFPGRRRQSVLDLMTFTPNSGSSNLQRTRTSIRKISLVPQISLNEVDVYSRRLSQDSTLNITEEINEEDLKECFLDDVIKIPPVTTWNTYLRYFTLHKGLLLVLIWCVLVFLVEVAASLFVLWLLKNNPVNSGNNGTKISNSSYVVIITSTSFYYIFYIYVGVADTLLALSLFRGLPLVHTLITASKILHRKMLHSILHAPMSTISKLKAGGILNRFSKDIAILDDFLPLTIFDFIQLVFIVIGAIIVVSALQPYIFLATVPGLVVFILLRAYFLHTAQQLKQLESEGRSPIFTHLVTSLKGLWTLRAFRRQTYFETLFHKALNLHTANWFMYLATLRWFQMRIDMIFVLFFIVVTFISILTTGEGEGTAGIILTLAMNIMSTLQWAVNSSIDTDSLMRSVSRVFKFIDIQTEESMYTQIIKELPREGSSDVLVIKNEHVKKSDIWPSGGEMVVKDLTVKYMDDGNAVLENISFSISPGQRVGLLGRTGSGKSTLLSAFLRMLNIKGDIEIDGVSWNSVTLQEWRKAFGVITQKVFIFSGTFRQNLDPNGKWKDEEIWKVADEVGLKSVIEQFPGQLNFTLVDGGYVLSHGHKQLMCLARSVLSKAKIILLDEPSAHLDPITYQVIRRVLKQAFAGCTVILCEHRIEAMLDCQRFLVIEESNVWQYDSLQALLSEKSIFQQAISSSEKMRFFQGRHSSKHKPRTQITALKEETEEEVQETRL

[8] = human healthy control organoids

O=C(O)c1ccc(/C=C2/SC(=S)N(c3cccc(C(F)(F)F)c3)C2=O)cc1 [B1, 4-[4-Oxo-2-thioxo-3-(3-trifluoromethyl-phenyl)-thiazolidin-5-ylidenemethyl]-benzoic acid]
Ki (CFTR [1]): 0.3 µM
Onset of inhibition (CFTR [1]; some cell types (eg. T84 cells), requiring prolonged incubation): Slow onset of inhibition
Effect of CFTR inhibitors on forskolin-stimulated swelling (CFTR [2]; [8]): reduced

O=C(CNc1ccc2ccccc2c1)N/N=C/c1cc(Br)c(O)c(Br)c1O [B2, (Naphthalen-2-ylamino)-acetic acid (3,5-dibromo-2,4,- dihydroxy-benzylidene)-hydrazide]
Effect of CFTR inhibitors on forskolin-stimulated swelling (CFTR [2]; [8]): reduced

Cc1ccc(S(=O)(=O)NC(=O)Nc2ccc([N+](=O)[O-])cc2)cc1 [B3, Diarylsulfonyl- urea]
Ki (CFTR [1]): > 100 µM

Cc1ccc(C2Nc3ccccc3-n3c(-c4ccccc4)c4c(=O)n(C)c(=O)n(C)c4c32)o1 (centres unmarked) [B6, 7,9-dimethyl-11-phenyl-6-(5-methylfuran-2-yl)-5,6-dihydro-pyrimido-[4′,5′-3,4]pyrrolo[1,2-a]quinoxaline-8,10-(7H,9H)-dione]
Ki (CFTR [1]): 0.09 µM

O=C1/C(=C/c2ccc(-c3nn[nH]n3)cc2)SC(=S)N1c1cccc(C(F)(F)F)c1 [B7, 5-[[4-(2h-tetrazol-5-yl)phenyl]methylene]-2-thioxo-3-[3-(trifluoromethyl)phenyl]-4-thiazolidinone]
Ki (CFTR [1]): ~1 µM
Water solubility relative to Inh.-172 [3]: more water soluble than Inh.-172

O=C(O)c1ccc(/C=C2\SC(=O)N(c3cccc(C(F)(F)F)c3)C2=O)cc1 [B8, 4-[[3-[3-(trifluoromethyl)phenyl]-2,4-dioxo-5-thiazolidinyli-dene]methyl]benzoic acid]
Ki (CFTR [1]): ~1 µM
Water solubility relative to Inh.-172 [3]: more water soluble than Inh.-172

COc1ccc2nc(Nc3nc(O)cc(CSc4nc5ccccc5[nH]4)n3)nc(C)c2c1 [C1, 6-(1H-Benzoimidazol-2-ylsulfanyl-methyl)-2-(6-methoxy-4-methyl-quinazolin-2-ylamino)-pyrimidin-4-ol]
Potency: Ks (CFTR [4]): Reference #** 11 Potency: Ks = 3 microM Solvent: DMSO Hints For Use: M.W.: 445.5

COc1ccc(S(=O)(=O)N2CCN(C(C)c3nc(OC4CCCCC4)c4ccccc4n3)CC2)cc1 (centres unmarked) [C3, Cyclohexyloxy-2-{1-[4-(4-methoxy-benzensulfonyl)-piperazin-1-yl]-ethyl}-quinazoline]
EC50 (CFTR [4]): 2 µM

COc1ccc(Cl)cc1Nc1nc(-c2sc(NC(=O)c3ccccc3)nc2C)cs1 [C4, N-[2-(5-Chloro-2-methoxy-phenylamino)-4′-methyl-[4,5′]bithiazolyl-2′-yl]-benzamide]
EC50 (CFTR [4]): 2 µM

Cc1cc(C)c2c(C)cc(Nc3ccccc3)nc2c1 [C5, 4,5,7-trimethyl N-phenylquinolin-2-amine]
EC50 (CFTR [4]): 13 µM

Cc1cc(Nc2ccc(Br)cc2)nc2ccccc12 [C6, N-(4-bromophenyl)-4-methylquinolin-2-amine]
EC50 (CFTR [4]): 8 µM

O=S(=O)(c1ccc(Cl)cc1)N1CCN(c2ccnc3cc(Cl)ccc23)CC1 [C9, 7-chloro-4-(4-(4-chlorophenylsul-fonyl)piperazin-1-yl)quinoline]
EC50 (CFTR [4]): < 1 µM

O=S(=O)(c1ccccc1)N1CCN(c2ccnc3cc(Cl)ccc23)CC1 [C10, 7-chloro-4-(4-(phenylsulfonyl)piperazin-1-yl)quinoline]
EC50 (CFTR [4]): > 100 µM

O=C(N/N=C\c1ccc(O)c(O)c1)c1cc2ccccc2cc1O [C11, (Z)-N′-(3,4-dihydroxyben-zylidene)-3-hydroxy-2-naphtho-hydrazide]
EC50 (CFTR [4]): 10 to 20 µM

Cc1ccc(-c2csc(Nc3ccc(F)cc3)n2)cc1 [C12, N-(4-fluorophenyl)-4-p-tolylthiazol-2-amine]
EC50 (CFTR [4]): 5 µM

CC(=O)c1cccc(Nc2nc(-c3sc(NC(=O)c4ccccc4)nc3C)cs2)c1 [C13, N-(2-(3-acetylphenyl-amino)-4′-methyl-4,5′-bithiazol-2′-yl)benzamide]
EC50 (CFTR [4]): 2 µM

COc1ccccc1Nc1ncc(-c2sc(NC(=O)c3ccccc3)nc2C)s1 [C14, N-(2′-(2-methoxyphenylamino)-4-methyl-5,5′-bithiazol-2-yl)benzamide]
EC50 (CFTR [4]): 7 µM

C=Cc1ccc(-c2csc(Nc3ccccc3)n2)cc1 [C15, N-phenyl-4-(4-vinylphenyl) thiazol-2-amine]
EC50 (CFTR [4]): 16 µM

COc1ccc2nc(Nc3nc(=O)c(C)c(C)[nH]3)nc(C)c2c1 [C16, 2-(6-methoxy-4-methylquina-zolin-2-ylamino)-5,6-dimethylpyrimi-din-4(1H)-one]
EC50 (CFTR [4]): 15 µM

COc1ccc(Cl)cc1Nc1nc(-c2sc(NC(=O)C(C)(C)C)nc2C)cs1 [C17, N-(2-(5-chloro-2-methoxyphenylamino)-4′-methyl-4,5′-bithiazol-2′-yl)pivalamide]
EC50 (CFTR [4]): 1 to 2 µM

O=C(Nc1ncc(C(c2ccccc2Cl)N2CCC(O)C2)s1)C1(c2ccc3c(c2)OCO3)CC1 (centres unmarked) [C18, 1-(benzo[d][1,3]di-oxol-5-yl)-N-(5-((2-chlorophenyl)(3-hydroxy-pyrrolidin-1-yl)methyl)thiazol-2-yl)cyclopropane carboxamide]
Potency: Ks (CFTR [4]): Reference # 24 Name: CF-106951 Potency Ks ~0.6 microM Solvent: DMSO Hints for use: Use at 3 to 6 microM for maximum effect. M.W. 497.99

Cc1ccc(O)c(-c2cc(-c3ccccc3)[nH]n2)c1 [P1, 4-Methyl-2-(5-phenyl-1H-pyrazol-3-yl)-phenol]
Potency: Ks (CFTR [5]; CFTR potentiator): Reference #**12 & 15 Name: VRT-532 Potency: Ks 3 to 5 microM Solvent: DMSO Hints For Use: M.W.: 250

CC(C)c1ccc(NC(=O)C(c2ccccc2)N(C)C(=O)Cc2c[nH]c3ccccc23)cc1 (centres unmarked) [P2, 2-[(2-1H-lndol-3-yl-acetyl)-methyl-amino]-N-(4-isopropyl-phenyl)-2-phenyl-acetamide]
Potency: Ks (CFTR [5]; CFTR potentiator): Reference #** 4 Name: PG-01 Potency:Ks = 300 nM Solvent: DMSO Hints For Use: M.W.: 439.5

CCN(c1ccccc1)S(=O)(=O)c1ccc2[nH]cc(C(=O)NCc3ccccc3OC)c(=O)c2c1 [P3, 6-(Ethyl-phenyl-sulfonyl)-4-oxo-1,4-dihydro-quinoline-3-carboxylic acid 2-methoxy-benzylamide]
Potency: Ks (CFTR [5]; CFTR potentiator): Reference #** 4 Name: SF-03 Potency: Ks = 30 nM Solvent: DMSO Hints For Use: M.W.: 491.6

O=c1[nH]c2cc(C(F)(F)F)ccc2n1-c1cccc(Cl)c1 [P4, 1-(3-chlorophenyl)-5-trifluoromethyl-3-hydrobenzi-midazol-2-one]
Potency: Ks (CFTR [5]; CFTR potentiator): Reference #** 5 Name: UCCF-853 Potency: Ks = 3 microM Solvent: DMSO Hints For Use: M.W.: 312.7

NC(=O)c1c(NC(=O)c2ccccc2Cl)sc2c1CCCC2 [P5, 2-(2-Chloro-benzoylamino)-4,5,6,7-tetrahydro-benzo[b] thiophene-3-carboxylic acid amide]
Potency: Ks (CFTR [5]; CFTR potentiator): Reference #** 6 Name: dF508act-02 Potency: Ks = 70 nM Solvent: DMSO Hints For Use: M.W.: 334.8

O=C1c2c(O)cc(O)cc2OCC1c1ccc(O)cc1 (centres unmarked) [P6, 5,7,Dihydroxy-3-(4-hydroxy-phenyl)-chroman-4-one]
Organoid swelling on compound addition (CFTR [6]): rapid organoid swelling
Potency: Ks (CFTR [5]; CFTR potentiator): Reference #** 8 Name: Genistein (discontinued— available from Sigma #G6649) Potency: Ks = 10 to 30 microM Solvent: DMSO

O=C1Cc2cc(C(F)(F)F)ccc2N1c1cc(Cl)ccc1O [P7, 1-(5-Chloro-2-hydroxy-phenyl)-5-trifluoromethyl-1,3-dihydro-indol-2-one]
EC50 (CFTR [5]; CFTR potentiator, read-out: Potency: EC50): 3 µM
Activity in excised patches (CFTR [5]; excised patches): Does not work in excised patches

O=c1cc(-c2ccncc2)oc2c1ccc1ccccc12 [P8, 4-(4-Oxo-4H-benzo[h]chromen-2-yl)-pyridinium; bisulfate]
Potency: Ks (CFTR [5]; CFTR potentiator): Reference #** 9 and 10 Potency: Ks = 2 microM Solvent: DMSO Hints For Use: M.W.: 371.4

C#CCCc1nn(-c2ccccc2)c(OC)c1C=O [P9, 3-But-3-ynyl-5-methoxy-1-phenyl-1H-pyrazole-4-carbaldehyde]
Potency: Ks (CFTR [5]; CFTR potentiator): Reference #** 10 Potency: Ks = 10 microM Solvent: DMSO Hints For Use: M.W.: 254.3

ClCc1cc(-c2ccccc2OCc2ccccc2)no1 [P10, 3-(2-Benzyloxy-phenyl)-5-chloromethyl-isoxazole]
Potency: Ks (CFTR [5]; CFTR potentiator): Reference #** 10 Potency: Ks >50 microM Solvent: DMSO Hints For Use: M.W.: 299.8

NCCc1ccc(O)c(O)c1 [dopamine]
Organoid swelling on compound addition (CFTR [6]): forskolin-like swelling

CNC[C@H](O)c1ccc(O)c(O)c1 [epinephrine]
Organoid swelling on compound addition (CFTR [6]): forskolin-like swelling

C=C[C@@]1(C)CC(=O)[C@]2(O)[C@@]3(C)[C@@H](O)CCC(C)(C)[C@@H]3[C@H](O)[C@H](OC(C)=O)[C@@]2(C)O1 [forskolin, (3R,4aR,5S,6S,6aS,10S,10aR,10bS)-6,10,10b-trihydroxy-3,4a,7,7,10a-pentamethyl-1-oxo-3-vinyldodecahydro-1H-benzo[f]chromen-5-yl acetate]
Organoid swelling induced by stimulus (CFTR [2]; [8]): rapid forskolin-stimulated swelling
Increase in organoid size (CFTR [2]; human organoids, in the space of 120 minutes (FIG. 8)): more than double in size
Organoid swelling on forskolin addition (CFTR [7]): rapid expansion of the lumen and total organoid surface area; also recorded: dose-dependent relation between forskolin and increase of surface area over time

CC(NCCc1ccc(O)cc1)C(O)c1ccc(O)cc1 (centres unmarked) [ritodrine]
Organoid swelling on compound addition (CFTR [6]): forskolin-like swelling

CC(C)(C)NCC(O)c1ccc(O)c(CO)c1 (centres unmarked) [salbutamol]
Organoid swelling on compound addition (CFTR [6]): forskolin-like swelling

cholera toxin
Increase in organoid size (CFTR [2]): more than double in size
Organoid swelling induced by stimulus (CFTR [2]): induce swelling
Time course of swelling response (CFTR [2]): delayed compared to forskolin

— patent publication US11035852B2, “Identifying drug candidates for treating polycystic kidney disease using organoids generated from primary cells” (UMC Utrecht Holding B.V., priority 2011, dated 2021)
